Measured values published in patent US8232274B2, “Pyridazinone derivatives useful as glucan synthase inhibitors” (Albany Molecular Research, Inc., priority 2007, dated 2012).

Experiments:
glucan synthase [1] = molecular target: T1, glucan synthase (Saccharomyces cerevisiae, UniProt P38631); test: β(1,3) glucan synthase assay, S. cerevisiae PM503 permeabilized cells or membrane preparation (IC50); format: biochemical
T1 construct: glucan synthase sources (2 μL permeabilized PM503 cells, or 3 μL membrane preparations from either PM503, BWP17, or ND158); endogenous in cells; host or cells: S. cerevisiae strain PM503, permeabilized cells or 100,000 g membrane fraction
T1 sequence (P06780 1-206): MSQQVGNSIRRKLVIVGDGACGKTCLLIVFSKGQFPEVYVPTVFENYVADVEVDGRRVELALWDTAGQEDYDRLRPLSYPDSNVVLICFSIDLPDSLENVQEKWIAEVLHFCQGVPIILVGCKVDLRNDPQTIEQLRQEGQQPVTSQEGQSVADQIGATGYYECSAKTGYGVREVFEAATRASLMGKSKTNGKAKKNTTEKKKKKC
T1 sequence (P38631 whole entry): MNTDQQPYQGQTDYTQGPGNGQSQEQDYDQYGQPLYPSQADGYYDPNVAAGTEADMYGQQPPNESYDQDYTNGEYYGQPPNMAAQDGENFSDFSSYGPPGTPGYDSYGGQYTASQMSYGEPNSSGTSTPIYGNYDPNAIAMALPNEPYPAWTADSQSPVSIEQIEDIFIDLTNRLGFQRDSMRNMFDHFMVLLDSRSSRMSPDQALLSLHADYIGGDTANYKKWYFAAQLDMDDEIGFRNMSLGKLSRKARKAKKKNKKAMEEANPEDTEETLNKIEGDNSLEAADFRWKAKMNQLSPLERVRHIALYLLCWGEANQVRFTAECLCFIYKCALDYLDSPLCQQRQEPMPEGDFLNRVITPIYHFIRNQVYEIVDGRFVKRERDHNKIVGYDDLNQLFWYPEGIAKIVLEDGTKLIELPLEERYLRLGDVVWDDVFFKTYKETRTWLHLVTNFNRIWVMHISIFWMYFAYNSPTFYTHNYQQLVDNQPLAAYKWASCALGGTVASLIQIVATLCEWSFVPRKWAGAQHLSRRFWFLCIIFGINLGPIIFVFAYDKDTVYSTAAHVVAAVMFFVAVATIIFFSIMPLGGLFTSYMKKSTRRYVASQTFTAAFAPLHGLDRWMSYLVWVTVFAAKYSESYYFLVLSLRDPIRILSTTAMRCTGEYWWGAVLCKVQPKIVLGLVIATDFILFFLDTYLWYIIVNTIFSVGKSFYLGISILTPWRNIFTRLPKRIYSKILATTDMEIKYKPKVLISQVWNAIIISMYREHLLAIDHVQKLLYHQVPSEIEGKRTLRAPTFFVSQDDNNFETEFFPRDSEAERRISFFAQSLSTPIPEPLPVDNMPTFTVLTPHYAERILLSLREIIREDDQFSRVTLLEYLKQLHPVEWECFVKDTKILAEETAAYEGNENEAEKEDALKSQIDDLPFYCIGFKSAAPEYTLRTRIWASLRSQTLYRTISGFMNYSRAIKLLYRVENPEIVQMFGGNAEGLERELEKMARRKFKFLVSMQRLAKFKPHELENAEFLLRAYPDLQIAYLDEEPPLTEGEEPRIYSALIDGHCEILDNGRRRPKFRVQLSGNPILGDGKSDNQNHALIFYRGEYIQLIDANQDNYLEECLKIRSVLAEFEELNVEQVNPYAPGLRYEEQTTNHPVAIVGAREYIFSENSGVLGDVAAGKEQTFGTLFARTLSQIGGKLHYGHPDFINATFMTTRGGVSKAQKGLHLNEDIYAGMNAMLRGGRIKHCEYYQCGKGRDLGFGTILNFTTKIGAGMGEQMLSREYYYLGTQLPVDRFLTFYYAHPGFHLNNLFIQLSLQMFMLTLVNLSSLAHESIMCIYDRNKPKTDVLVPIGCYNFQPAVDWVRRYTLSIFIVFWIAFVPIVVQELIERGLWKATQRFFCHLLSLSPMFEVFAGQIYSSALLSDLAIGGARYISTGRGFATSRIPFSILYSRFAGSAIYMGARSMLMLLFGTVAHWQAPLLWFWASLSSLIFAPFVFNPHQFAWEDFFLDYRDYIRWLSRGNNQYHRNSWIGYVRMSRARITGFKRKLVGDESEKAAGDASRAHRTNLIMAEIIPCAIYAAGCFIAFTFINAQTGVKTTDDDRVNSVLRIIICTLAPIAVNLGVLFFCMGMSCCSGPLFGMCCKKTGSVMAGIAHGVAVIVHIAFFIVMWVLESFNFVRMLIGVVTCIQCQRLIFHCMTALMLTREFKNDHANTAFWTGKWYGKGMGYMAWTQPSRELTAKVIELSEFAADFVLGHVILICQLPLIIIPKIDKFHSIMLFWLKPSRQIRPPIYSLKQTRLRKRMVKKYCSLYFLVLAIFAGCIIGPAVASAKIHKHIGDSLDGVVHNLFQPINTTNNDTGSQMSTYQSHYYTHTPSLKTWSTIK
Experimental: (§1) β(1,3) Glucan Synthase Assay:
1. Preparation of Permeabilized Saccharomyces cerevisiae Cells.
Permeabilization of yeast cells was performed according to Crotti et al. (Analytical Biochemistry, 292, 8-16, 2001) with some modifications. A 10 ml-starter culture of the S. cerevisiae strain in YPD medium (1% yeast extract, 2% bacto-peptone, 2% dextrose) with OD600=3-4 was used to inoculate 1 liter of YPD. The culture was grown at 30° C. until […]. Cells were collected by centrifugation (5,300 g for 15 min at 4° C.) and resuspended in buffer (40 mM EDTA, 100 mM β-mercaptoethanol) at 1 g of cell pellet/3.5 ml buffer. The cell suspension was shaken for 30 min at 30° C., followed by centrifugation at 12,000 g for 10 min at 4° C. The cell pellet was washed with 5 ml 0.8 M sorbitol and resuspended in 6.8 ml of 2.9 mM citric acid, 11.3 mM dibasic sodium phosphate, 1 mM EDTA, 0.8 M sorbitol, with constant shaking at 30)C for 30 min. After centrifugation at 12,000 g for […] at 4° C., the pellet was resuspended in 31.3 ml 50 mM Tris-HCl, pH 7.0, and incubated on ice for 5 min. The mixture was then centrifuged at 12,000 g for 10 min at 4 AC, and the pellet was resuspended in 1 ml of 50 mM Tris-HCl and 33% glycerol, pH 7.5. The permeabilized cell preparation was stored at […] in aliquots.
(§2) 2. Preparation of Membrane Fraction of Yeast Cells
(§3) The protocol was modified from Douglas et al. (Journal of Bacteriology, 176, 5686-5696, 1994). For the preparation of S. cerevisiae and C. albicans membrane fractions, 1 liter of YPD supplemented with 0.02 mg/mL adenine and 0.08 mg/mL uracil was inoculated with 10 mL starter culture of PM503 (OD600=4) or the C. albicans strain BWP17 (OD600=12) in the same medium and grown at 30° C. until OD600 reached about 1. A. fumigatus (stain ND158) membranes were prepared by first preparing a spore suspension from agar slants by adding 6 mL of sterile saline, 0.1% Tween-20 solution to each slant, and resuspending by pipetting and scraping. The spore suspensions were used to inoculate two 200 mL flasks containing Sabouraud dextrose broth media. Cultures were incubated at 37° C., 250 rpm for ˜8 hrs. All cells, S. cerevisiae, C. albicans or A. fumigatus were harvested by centrifugation at 5,300 g at 4° C. for 40 minutes. After washing with 100 mL of breakage buffer (0.1 M KPi, pH 7.0, 1 mM EDTA, 1 mM DTT), the cell pellet was resuspended in 50 ml ice-cold breakage buffer. The mixture was transferred to a bead-beater chamber packed in ice (BioSpec Products, Bartlesville, Okla.). To each 50 mL sample was added 50 g of acid-washed glass beads ([…], Sigma). Cells were disrupted using 12×20 second pulses with 2 min-cooling intervals. Cell debris was removed by centrifugation at 3,000 g for 20 minutes at 4° C., and the supernatant was collected and centrifuged at 100,000 g for 1 hour at 4° C. to pellet the membrane fraction. The pellet was resuspended in 5 mL of ice-cold breakage buffer containing 25% glycerol, homogenized with a Dounce tissue homogenizer and stored at −80° C. in small aliquots.
(§4) 3. Glucan Synthase Assay and Compound Screening
The assay was performed according to Mo et at (Journal of Biological Chemistry, 269, 31267-31274, 1994) and Taft et al. (The Journal of Antibiotics, 47, 1001-1009, 1994), in a 96-well Optiplate (PerkinElmer). To each well was added 3 μL 10× compound stock (in 100% DMSO), or 3 μL of 30 μg/mL caspofungin in 100% DMSO (as positive control), or 3 μL 100% DMSO (as negative control), followed by the addition of appropriate amount of glucan synthase sources (2 μL permeabilized PM503 cells, or 3 μL membrane preparations from either PM503, BWP17, or ND158). The reaction was initiated by adding 25 μL reaction buffer (0.6 mM UDP-Glucose 0.6 nCi [U-^14C]DUP-Glucose (327 mCi/mmol, Amersham Bioscience), 20 μM GTP-γ-S, 25 mM NaF, 7.5 mg/mL BSA, 8% glycerol in 75 mM Tris-HCl, pH 7.5). […]

glucan synthase [2] = molecular target: T2, glucan synthase (Candida albicans, UniProt O13428); test: β(1,3) glucan synthase assay, C. albicans BWP17 membrane preparation (IC50); format: biochemical; details: in vitro fungal enzyme activity assay, read-out: IC50 (μg/mL) Candida albicans (converted)
T2 construct: glucan synthase sources (2 μL permeabilized PM503 cells, or 3 μL membrane preparations from either PM503, BWP17, or ND158); endogenous in cells; host or cells: C. albicans strain BWP17, 100,000 g membrane fraction
T2 sequence (O13428 1-1897): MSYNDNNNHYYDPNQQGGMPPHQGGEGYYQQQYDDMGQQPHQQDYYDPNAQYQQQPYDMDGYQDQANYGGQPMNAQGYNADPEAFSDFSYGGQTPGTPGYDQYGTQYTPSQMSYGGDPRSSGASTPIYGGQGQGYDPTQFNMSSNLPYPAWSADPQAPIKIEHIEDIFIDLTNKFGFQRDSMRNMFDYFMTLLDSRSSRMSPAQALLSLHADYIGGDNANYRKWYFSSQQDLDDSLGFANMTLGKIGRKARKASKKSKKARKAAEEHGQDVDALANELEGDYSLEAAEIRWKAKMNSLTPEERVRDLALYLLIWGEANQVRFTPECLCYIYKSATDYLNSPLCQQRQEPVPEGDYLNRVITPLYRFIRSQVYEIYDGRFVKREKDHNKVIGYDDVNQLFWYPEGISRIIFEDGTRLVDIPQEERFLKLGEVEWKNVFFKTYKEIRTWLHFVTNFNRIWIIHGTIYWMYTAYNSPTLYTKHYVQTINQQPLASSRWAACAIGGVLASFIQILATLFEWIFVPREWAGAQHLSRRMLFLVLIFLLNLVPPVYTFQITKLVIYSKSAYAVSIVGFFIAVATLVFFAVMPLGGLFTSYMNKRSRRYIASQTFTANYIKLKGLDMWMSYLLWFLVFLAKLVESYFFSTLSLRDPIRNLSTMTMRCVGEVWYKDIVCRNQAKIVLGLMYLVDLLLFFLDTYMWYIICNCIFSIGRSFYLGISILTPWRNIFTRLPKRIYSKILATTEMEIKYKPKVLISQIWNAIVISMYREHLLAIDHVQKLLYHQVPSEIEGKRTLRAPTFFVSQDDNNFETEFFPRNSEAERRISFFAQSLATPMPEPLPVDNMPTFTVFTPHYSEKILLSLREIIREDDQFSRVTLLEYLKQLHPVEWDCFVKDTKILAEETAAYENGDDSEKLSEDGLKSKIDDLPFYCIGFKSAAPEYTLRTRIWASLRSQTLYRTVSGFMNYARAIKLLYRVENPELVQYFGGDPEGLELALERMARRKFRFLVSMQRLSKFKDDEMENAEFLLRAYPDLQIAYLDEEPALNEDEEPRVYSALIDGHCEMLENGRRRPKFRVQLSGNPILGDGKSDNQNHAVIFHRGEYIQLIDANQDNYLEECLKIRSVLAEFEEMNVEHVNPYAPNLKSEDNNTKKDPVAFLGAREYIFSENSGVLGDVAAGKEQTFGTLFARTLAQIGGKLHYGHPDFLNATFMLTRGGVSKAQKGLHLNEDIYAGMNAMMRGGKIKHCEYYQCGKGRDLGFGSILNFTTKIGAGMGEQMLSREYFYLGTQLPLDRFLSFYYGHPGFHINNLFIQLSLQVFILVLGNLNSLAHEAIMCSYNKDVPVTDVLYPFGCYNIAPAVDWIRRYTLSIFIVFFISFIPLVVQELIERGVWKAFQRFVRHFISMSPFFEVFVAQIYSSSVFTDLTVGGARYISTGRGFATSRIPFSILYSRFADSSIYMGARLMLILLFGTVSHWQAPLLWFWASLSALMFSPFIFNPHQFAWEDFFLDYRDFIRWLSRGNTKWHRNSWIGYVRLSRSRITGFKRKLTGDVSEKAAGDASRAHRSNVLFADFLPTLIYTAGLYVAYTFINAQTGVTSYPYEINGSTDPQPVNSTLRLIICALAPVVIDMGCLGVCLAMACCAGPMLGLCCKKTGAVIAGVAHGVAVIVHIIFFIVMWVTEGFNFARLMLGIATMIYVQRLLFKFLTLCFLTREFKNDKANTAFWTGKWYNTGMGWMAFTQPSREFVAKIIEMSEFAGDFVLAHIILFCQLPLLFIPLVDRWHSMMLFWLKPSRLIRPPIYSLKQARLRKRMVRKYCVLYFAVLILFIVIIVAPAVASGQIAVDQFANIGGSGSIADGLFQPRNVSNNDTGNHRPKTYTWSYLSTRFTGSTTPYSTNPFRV
T2 sequence (O42825 1-195 partner limits assumed): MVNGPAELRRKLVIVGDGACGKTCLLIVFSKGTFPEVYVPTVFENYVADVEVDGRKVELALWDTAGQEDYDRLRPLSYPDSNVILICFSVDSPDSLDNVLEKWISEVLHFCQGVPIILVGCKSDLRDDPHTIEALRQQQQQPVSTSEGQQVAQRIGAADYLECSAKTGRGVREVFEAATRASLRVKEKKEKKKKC
Experimental: as §1, §2, §3, §4
The assay was performed according to Mo et at (Journal of Biological Chemistry, 269, 31267-31274, 1994) and Taft et al. (The Journal of Antibiotics, 47, 1001-1009, 1994), in a 96-well Optiplate (PerkinElmer). To each well was added 3 μL 10× compound stock (in 100% DMSO), or 3 μL of 30 μg/mL caspofungin in 100% DMSO (as positive control), or 3 μL 100% DMSO (as negative control), followed by the addition of appropriate amount of glucan synthase sources (2 μL permeabilized PM503 cells, or 3 μL membrane preparations from either PM503, BWP17, or ND158). The reaction was initiated by adding 25 μL reaction buffer (0.6 mM UDP-Glucose 0.6 nCi [U-^14C]DUP-Glucose (327 mCi/mmol, Amersham Bioscience), 20 μM GTP-γ-S, 25 mM NaF, 7.5 mg/mL BSA, 8% glycerol in 75 mM Tris-HCl, pH 7.5). The plate was incubated on a shaker for 1.5 hour at room temperature before being quenched with 250 μL 1% TCA (Trichloroacetic Acid). The quenched reaction was mixed by pipetting, and immediately transferred to a 96-well filter plate (Glass fiber B on 0.65 μm hydrophilic durapore membrane, Millipore) pre-wetted with wash buffer (5% TCA, 60 mM NaPPi). The glucan product was retained on the filter membrane by applying vacuum to the plate using a MultiScreen Resist Vacuum Manifold (Millipore). The filter plate was further washed 4 times with 200 μL wash buffer. The plate was dried at 50° C. for 30 minutes. 100 μL of Microscint-0 (PerkinElmer) was added to each well, and plate was counted in a TopCount NXT plate reader (PerkinElmer).
Dose-response curves were plotted from inhibition data generated. IC50 was determined by fitting the CPM versus the Concentration of the test compound plot with the following equation (4-parameter logistic model, ID Business Solutions XLfit 4.2).

Compound	IC50 (glucan synthase [1]) [nM]	IC50 (glucan synthase [2]) [nM]
COc1ccc(CNS(=O)(=O)N2CCN(c3cnn(-c4cc(F)cc(F)c4)c(=O)c3OCC3(C)CC3)CC2)cc1 [1633Z]	139	86.9
Nc1ccc(CS(=O)(=O)N2CCN(c3cnn(-c4cccc(Cl)c4)c(=O)c3OCC3CCC3)CC2)cc1 [1529Z-73]	165	349
Nc1ccc(CS(=O)(=O)N2CCN(c3cnn(-c4cccc(Cl)c4)c(=O)c3OCC3(CF)CC3)CC2)cc1 [809Z]	71.2	196
CCCCCCSc1c(N2CCN(S(C)(=O)=O)CC2)cnn(-c2cc(F)cc(F)c2)c1=O [11Z]	2470	12700
Nc1ccc(CS(=O)(=O)N2CCN(c3cnn(-c4cc(F)cc(F)c4)c(=O)c3OC3CCC(F)C3)CC2)cc1 (stereo not drawn) [1529Z-6]	35.5	106
O=c1c2c(cnn1-c1cc(F)cc(F)c1)N1CCN(CC1)S(=O)(=O)/C=C/CCCCCCCCO2 [2022Z]	78.6	157
CC1(COc2c(N3CCN(S(=O)(=O)Cc4ccc5ncoc5c4)CC3)cnn(-c3cc(F)cc(F)c3)c2=O)CC1 [1891Z]	87.5	122
O=c1c(OCC2CC2)c(N2CCN(S(=O)(=O)Cc3ccccc3)CC2)cnn1-c1cccc(Cl)c1 [1529Z-185]	11.6	38.8
CC1(COc2c(N3CCN(S(=O)(=O)NCc4ccc(Cl)nc4)CC3)cnn(-c3cccc(Cl)c3)c2=O)CC1 [1675Z]	138	345
CCCCCCCOc1c(N2CCN(S(=O)(=O)CC)CC2)cnn(-c2ccccc2)c1=O [244Z]	201	886
CC(C)(C)COc1c(N2CCN(S(=O)(=O)Cc3ccc(N)cc3)CC2)cnn(-c2cc(F)cc(F)c2)c1=O [1529Z-174]	128	183
CC1(COc2c(N3CCN(S(=O)(=O)Cc4cccc(N)c4)CC3)cnn(-c3cccc(Cl)c3)c2=O)CC1 [755Z]	91.9	73.5
CCCCCCCSc1c(N2CCN(S(=O)(=O)Cc3ccccc3)CC2)cnn(-c2ccccc2)c1=O [7Z]	629	2030
O=c1c(OCC2(CF)CC2)c(N2CCN(S(=O)(=O)Cc3ccccc3)CC2)cnn1-c1cccc(Cl)c1 [1122Z]	54.8	54.8
O=c1c(OC2CCCC2)c(N2CCN(S(=O)(=O)Cc3ccccc3)CC2)cnn1-c1cccc(F)c1 [1402Z]	39	117
CC1(COc2c(N3CCN(S(=O)(=O)Cc4cccnc4N)CC3)cnn(-c3cccc(Cl)c3)c2=O)CC1 [Compound 1574Zr]	110	239
Cc1ccc(Cc2c(N3CCN(S(=O)(=O)C(C)C)CC3)cnn(-c3cc(F)cc(F)c3)c2=O)cc1 [119Z]	125	1610

Compound	IC50 (glucan synthase [1]) [nM]	IC50 (glucan synthase [2]) [nM]
O=c1c(N2CCCCC2)c(N2CCN(S(=O)(=O)Cc3ccccc3)CC2)cnn1-c1ccc(F)cc1 [61Z]	625	2540
Cc1nc2ccc(CS(=O)(=O)N3CCN(c4cnn(-c5cc(F)cc(F)c5)c(=O)c4OCC4(C)CC4)CC3)cc2o1 [1898Z]	85.4	102
CC(C)(C)COc1c(N2CCN(S(=O)(=O)Cc3cccc(N)c3)CC2)cnn(-c2cc(F)cc(F)c2)c1=O [1529Z-190]	91.3	219
O=c1c(-c2ccc(C3CCCCC3)cc2)c(N2CCN(S(=O)(=O)Cc3ccccc3)CC2)cnn1-c1cc(F)cc(F)c1 [96Z]	364	1550
O=c1c(Nc2ccc(F)cc2)c(N2CCN(S(=O)(=O)Cc3ccccc3)CC2)cnn1-c1cccc(Cl)c1 [47Z]	45.1	415
CC1(COc2c(N3CCN(S(=O)(=O)Cc4cc(N)ccc4F)CC3)cnn(-c3cccc(Cl)c3)c2=O)CC1 [1904Z]	107	142
N#Cc1cccc(-c2c(N3CCN(S(=O)(=O)Cc4ccccc4)CC3)cnn(-c3cc(F)cc(F)c3)c2=O)c1 [82Z]	87.7	822
CS(=O)(=O)N1CCN(c2cnn(-c3cccc(Cl)c3)c(=O)c2OC2CCc3ccccc3C2)CC1 (stereo not drawn) [974Z]	252	641
Cc1cc(CS(=O)(=O)N2CCN(c3cnn(-c4cccc(Cl)c4)c(=O)c3OCC3(C)CC3)CC2)ccc1N [1869Z]	53.8	143
O=c1c(OC2CCCC2)c(N2CCN(Cc3c(Cl)cccc3Cl)CC2)cnn1-c1cccc(Cl)c1 [208Z]	206	2620
CC1(COc2c(N3CCN(S(=O)(=O)Cc4cccc(Cl)c4N)CC3)cnn(-c3cc(F)cc(F)c3)c2=O)CC1 [Compound 1574Zq]	69	138
CCC1(COc2c(N3CCN(S(=O)(=O)Cc4ccc(N)cc4)CC3)cnn(-c3cc(F)cc(F)c3)c2=O)CC1 [186*]	89.3	214
CC1(COc2c(N3CCN(S(=O)(=O)Cc4ccc(N)c(Cl)c4)CC3)cnn(-c3cc(F)cc(F)c3)c2=O)CC1 [Compound 1574Zo]	51.7	69
O=c1c(OCC2(CF)CC2)c(N2CCN(S(=O)(=O)NCc3ccc4ncoc4c3)CC2)cnn1-c1cccc(Cl)c1 [1743Z]	116	99.5
CC1(COc2c(N3CCN(S(=O)(=O)NCc4ccc(N)c(F)c4)CC3)cnn(-c3cccc(Cl)c3)c2=O)CC1 [1712Z]	139	104
CNc1cccc(CS(=O)(=O)N2CCN(c3cnn(-c4cccc(Cl)c4)c(=O)c3OCC3(C)CC3)CC2)c1 [1969Z]	215	215
